Patent publication US10428151B2, “Treatment of hematologic malignancies with an anti-CXCR4 antibody” (BRISTOL-MYERS SQUIBB COMPANY, priority 2011, dated 2019)
“And” between values parts separate entries of the source, which are not always exact repeats. Equal entries are not always repeated.

Legend:
[1] = test system: MM cells; details: compared to vehicle-treated mice; Roccaro et al., 2012; cited from earlier work
[2] = test system: HL-60 cells; experiment: HL-60 AML xenograft in SCID mice; format: in vivo; details: for median tumor growth inhibition: Day 27, 10 mg/kg/dose
Excerpt: To assess the antibody's efficacy in AML, two cytarabine-resistant mouse xenograft models, HL-60 and Nomo-1 were used. CXCR4 expression in each cell line was confirmed by FACS staining (FIG. 4A). SCID mice were subcutaneously implanted with 10 million HL-60 cells as described in Example 14.

[3] = test system: parental JJN-3 cells; experiment: JJN-3 MM xenograft in SCID mice; format: in vivo; details: Day 25; compared to vehicle control; MDX-1338 10 mg/kg/dose IP, bortezomib 0.8 mg/kg/dose IV
Excerpt: 5 million JJN-3 cells/mouse were implanted into SCID mice and the mice were randomized into groups of 8 when the tumor volume reached approximately 77 mm^3.

BMS-936564: fully human anti-CXCR4 monoclonal antibody; VH SEQ ID NO: 25, VL SEQ ID NO: 29
MM cell dissemination to distant bone marrow niches [1]: less MM cell dissemination | median tumor growth inhibition ([2]; compared to isotype): 88% | median tumor growth inhibition ([2]; compared to vehicle): 83% | % Tumor Growth Inhibition (Monotherapy) ([2]; HL60): 60% and 82% | tumor growth inhibition [3]: 52%
